Measured values taken from US11236102B2, “Oxabicycloheptane prodrugs” (Lixte Biotechnology, Inc., priority 2015, dated 2022).
Several values for one entry are separate records, joined by “and”; a condition that tells them apart may be missing. Equal values may be shown once. Entries after “also recorded” stand apart in the source; their conditions may differ. Each block holds one compound with its values, some of them ahead of it.

Experiments:
[1] = Pharmacokinetic study of 157 (iv, po) in SD rats: 157 and endothal in plasma, liver, brain; assay type: in vivo
Protocol: The blood, liver and brain tissue samples were collected at predetermined times from rats. […] Compound were diluted shortly before use in 4% sodium bicarbonate for sterile injection (this is the standard pediatric solution of NaHCO3 with a pH of about 8.5).
Compound 153 was freshly prepared by diluting the drugs shortly before use in 4% sodium bicarbonate for sterile injection (this is the standard pediatric solution of NaHCO3 with a pH of about 8.5). The final concentrations of 153 solutions were 0.25 mg/mL. The 153 solutions were administered via iv or po route at dose volume of 5 ml/kg according to the latest body weight. Compound 157 was freshly prepared by diluting the drugs shortly before use in 4% sodium bicarbonate for sterile injection (this is the standard pediatric solution of NaHCO3 with a pH of about 8.5). […] The 157 solutions were administered via iv or po route at dose volume of 5 ml/kg according to the latest body weight.
Twelve (12) female SD rats per group were dosed by iv with 153 or 157. The rats were fasted overnight prior to dosing, with free access to water. Foods were withheld for 2 hours post-dose. Blood, liver and brain tissue samples in two animals each group were collected at each time point, within 10% of the scheduled time for each time point. Two extra animals were used for analytic method development.
Blood (>0.3 mL) were collected via aorta abdominalis in anaesthetic animals into tubes containing heparin at 15 min, 1, 2, 6, 10 and 24 hours after iv administration. Liver and brain tissues were collected immediately after animal death. The liver and brain tissues were excised and rinsed with cold saline to avoid blood residual. Upon collection, each sample was placed on ice and the blood samples were subsequently centrifuged (4° C., 11000 rpm, 5 min) to separate plasma.
The obtained plasma, liver and brain tissue samples were stored at −70° C. until LC-MS/MS analysis.
Two (2) female SD rats per group were dosed by po with 153 or 157. The rats were fasted overnight prior to dosing, with free access to water. Foods were withheld for 2 hours post-dose. Blood samples (>0.3 mL) were collected via aorta abdominalis in anaesthetic animals into tubes containing heparin at 30 min, 1, 2, 6, 10 and 24 hours after po administration.
To each sample, 30 μL IS-D (for blank samples, 20 μL acetonitrile:water (1:1) was added) and 300 ul acetonitrile was added. The sample mixture was vortexed for approximately 3 min. After centrifugation at 10000 rpm for 5 min at 4° C., 100 μL of the upper layer was transferred to a new tube and added 200 μL 0.4% formic acid in water (pH6.0). The mixture was vortexed for approximately 3 min before injected onto the LC/MS/MS system for analysis.
On the day of the assay, the frozen liver and brain samples were thawed unassisted at room temperature. An about 200 mg weighed sample of each thawed tissue was placed into a plastic tube with water (0.6 mL) to facilitate homogenization. Tissue processing was conducted using a homogenizer for approximately 1 min, […] homogenate was transferred into a fresh Eppendorf tube. To each tube, 50 μL IS-D was added and mixed. Then 500 ul acetonitrile was added and the sample mixture was vortexed for approximately 3 min. After centrifugation at 10000 rpm for 5 min at 4° C., 100 μL of the upper layer was transferred to a new tube and evaporate the supernatant to dryness at 35° C. Reconstitute the residue with 200 μL of 0.4% formic acid in water (pH 6.0), and vortex for 3 min, submit for LC-MS/MS analysis.
Frozen unknown plasma samples were completely thawed at room temperature and vortexed thoroughly. With a pipette, 50 μL of plasma was transferred into a 2.0 mL Eppendorf tube. 50 μL of 0.1N HCl and 800 μL ethyl acetate were added into each sample. The sample mixture was vortexed for approximately 3 min.

in vivo = details: rat, 1.4 mg/kg
Protocol: 113 was dissolved in 4% NaHCO3 in saline for IV administration. The detailed procedure of dosing solution preparation was presented in Appendix I.
15 animals were placed on the study. The animals in IV arm were free access to food and water. For PO dose group, the animals were fasted overnight prior to dosing and the food was resumed 4 hours postdose.
The IV injection was conducted via foot dorsal vein. PO via oral gavage.
Blood collection: The animal is restrained manually. Approximately 200 μL of blood/time point is collected into sodium heparin tube via cardiac puncture for terminal bleeding (anesthetized under carbon dioxide). Blood sample will be put on ice and centrifuged to obtain plasma sample (2000 g, 5 min under 4° C.) within 10 minutes.
Liver collection: The animal will be euthanized with carbon dioxide inhalation. Open abdominal cavity with scissor to expose internal organs. Hold the carcass in an upright position and allow the organs to fall forward. Cut the connective tissues and remove the organs. Then the organs are rinsed with cold saline, dried on filtrate paper, placed into a screw-top tube and weighed, snap frozen by placing into dry-ice immediately.
Brain collection: Make a mid-line incision in the animals scalp and retract the skin. Using small bone cutters and rongeurs, remove the skull overlying the brain. Remove the brain using a spatula and rinse with cold saline, dried on filtrate paper, placed into a screw-top tube and weighed, snap frozen by placing into dry-ice immediately. […] Plasma, brain and liver samples were stored at approximately −80° C. until analysis. The backup samples will be discarded after three weeks after in-life completion unless requested. The unused dosing solutions will be discarded within three weeks after completion of the study.
Pharmacokinetic Analysis Software: The PK parameters were determined by non-compartmental model of non-compartmental analysis tool, Pharsight Phoenix WinNonlin® 6.2 software. […] Concentration data within 80%-120% of LLOQ was considered within normal instrumental variation and presented in the results. Terminal t1/2 calculation: Time points were automatic selected by “best fit” model for terminal half life estimation as the first option. Manual selection was applied when “best fit” could not well define the terminal phase. Results

[2] = Whole blood stability (half-life) and metabolite formation; assay type: in vitro ADME, rat, dog, monkey and human; details: for metabolism in whole blood metabolite study: rat, dog
Protocol: (§1) The stability (whole blood, liver S9, SGF, SIF, and PBS buffer) and MDCK-MDR1 monolayer permeability of LB100, LB-100 Carbonate and LB-100 POM were evaluated.
(§2) Samples were analyzed by LC-MS/MS using a SCIEX QTrap 5500 mass spectrometer coupled with an Agilent 1290 HPLC Infinity series, a CTC PAL chilled autosampler, all controlled by Analyst software. After separation on a C18 reverse phase HPLC column (Acquity UPLC HSS T3, 1.8, 2.1×50 mm) using an acetonitrile-water gradient system, peaks were analyzed by mass spectrometry (MS) using […] ionization in MRM mode.
Whole Blood Stability: Experimental Conditions Experimental Procedure: The stock solution was first diluted in acetonitrile at a concentration that is 100× of the desired final concentration. It was incubated in duplicate with whole blood at 37° C. At indicated times, an aliquot was removed from each experimental and control reaction and mixed with three volumes of ice-cold Stop Solution (methanol containing propranolol as internal standard). Stopped reactions were incubated at least ten minutes at −20° C. The samples were centrifuged to remove precipitated protein, and the supernatants were analyzed by LC-MS/MS to quantitate the remaining parent and the formation of metabolites.
Data were converted to % remaining by dividing by the time zero concentration value. Data were fit to a first-order decay model to determine half-life.

[3] = Liver S9 stability and metabolite formation; assay type: in vitro ADME, rat, dog, monkey and human; details: presence and absence of NADPH, cross species
Protocol: as §1, §2
Experimental Procedure: Test agent is incubated in duplicate with liver S9 at 37° C. The reaction contains liver S9 protein in 100 mM potassium phosphate, 2 mM NADPH, 3 mM MgCl2, pH 7.4. A control is run for each test agent omitting NADPH to detect NADPH-free degradation. At indicated times, an aliquot is removed from each experimental and control reaction and mixed with an equal volume of ice-cold Stop Solution (methanol, containing internal standard propranolol). Stopped reactions are incubated for 10 minutes at −20° C. Samples are centrifuged to remove precipitated protein, and supernatants are analyzed by LC/MS/MS to quantitate remaining parent and the formation of metabolites. Data are reported as % remaining by dividing by the time zero concentration value.

[4] = fostriecin iv daily for 5 days, phase I trials; cited from earlier work
[5] = iv 1.5 mg/kg, 0.25 hr, individual rats, 1.5 mg/kg
[6] = iv 1.5 mg/kg, 1 hr, individual rats, 1.5 mg/kg
[7] = iv 1.5 mg/kg, 2 hr, individual rats, 1.5 mg/kg
[8] = iv administration of 157 at 1.5 mg/kg
[9] = plasma, 157 1.5 mg/kg IV, individual rats, 1.5 mg/kg
[10] = plasma, 157 1.5 mg/kg PO, individual rats, 1.5 mg/kg

Compound: CCCCCCCOC(=O)C1C2CCC(O2)C1C(=O)N1CCN(C)CC1 (stereo not shown) [Compound 157]
metabolism to endothal in vivo ([1]; 157 administered to rats): metablozied to endothal in vivo; also recorded: converted to endothal in the plasma
oral availability ([1]; 157 at 1.5 mg/kg po to SD rats): poorly orally available
157 plasma concentration ([1]; PO 1.5 mg/kg, 0.5 hr, individual rats, 1.5 mg/kg): 5.92 ng/mL and 6.35 ng/mL
157 plasma concentration ([1]; PO 1.5 mg/kg, 0.5 hr, mean): 6.14 ng/mL
157 plasma concentration ([1]; PO 1.5 mg/kg, 1 hr, individual rats, 1.5 mg/kg): 1.48 ng/mL and 1.26 ng/mL
157 plasma concentration ([1]; PO 1.5 mg/kg, 1 hr, mean): 1.37 ng/mL
157 plasma concentration ([1]; PO 1.5 mg/kg, 2 hr, individual rats, 1.5 mg/kg): 0.303 ng/mL and 0.194 ng/mL
157 plasma concentration ([1]; PO 1.5 mg/kg, 2 hr, mean): 0.249 ng/mL
bioavailability ([1]; female, Sprague-Dawley, rat, in vivo, 157 1.5 mg/kg PO vs IV, mean, read-out: F (bioavailability, BA)): 6.78%
157 brain concentration ([1]; iv 1.5 mg/kg, 0.25 hr, individual rats): 60.0 ng/g
157 liver concentration [1, 5]: 337 ng/g and 257 ng/g
157 plasma concentration [1, 5]: 116 ng/mL and 114 ng/mL
157 brain concentration ([1]; iv 1.5 mg/kg, 0.25 hr, mean): 60.0 ng/g
157 liver concentration ([1]; iv 1.5 mg/kg, 0.25 hr, mean): 297 ng/g
157 plasma concentration ([1]; iv 1.5 mg/kg, 0.25 hr, mean): 115 ng/mL
157 brain concentration [1, 6]: 1.99 ng/g and 2.80 ng/g
157 liver concentration [1, 6]: 29.4 ng/g and 17.6 ng/g
157 plasma concentration [1, 6]: 2.67 ng/mL and 3.57 ng/mL
157 brain concentration ([1]; iv 1.5 mg/kg, 1 hr, mean): 2.40 ng/g
157 liver concentration ([1]; iv 1.5 mg/kg, 1 hr, mean): 23.5 ng/g
157 plasma concentration ([1]; iv 1.5 mg/kg, 1 hr, mean): 3.12 ng/mL
157 brain concentration ([1]; iv 1.5 mg/kg, 2 hr, individual rats): BLQ
157 liver concentration [1, 7]: 6.40 ng/g and 9.72 ng/g
157 plasma concentration [1, 7]: 0.491 ng/mL and 0.556 ng/mL
157 liver concentration ([1]; iv 1.5 mg/kg, 2 hr, mean): 8.06 ng/g
157 plasma concentration ([1]; iv 1.5 mg/kg, 2 hr, mean): 0.524 ng/mL
157 liver concentration ([1]; iv 1.5 mg/kg, 10 hr, individual rats): BLQ
AUClast in brain [1, 8]: 24.6 ng·h/g
AUClast in liver [1, 8]: 152 ng·h/g
AUC [1, 9]: 47.3 ng·h/mL
AUC0-∞ [1, 9]: 47.3 ng·h/mL
Cmax [1, 9]: 116 ng/mL and 114 ng/mL
AUC ([1]; plasma, 157 1.5 mg/kg IV, mean): 47.2 ng·h/mL
AUC0-∞ ([1]; plasma, 157 1.5 mg/kg IV, mean): 47.2 ng·h/mL
AUC [1, 10]: 3 ng·h/mL
AUC0-∞ [1, 10]: 3 ng·h/mL

plasma concentration of 113 (in vivo; male, SD, po, 2 hr): 2.15 ng/mL
concentration at 2 hr (in vivo; male, SD, po, plasma concentration of 113): 2.15 ng/mL
AUC(0-t) (in vivo; male, Sprague-Dawley, iv): 155 ng·h/mL
Tmax (in vivo; male, Sprague-Dawley, iv): 15 min
AUC(0-t) (in vivo; male, Sprague-Dawley, po): 15.7 ng·h/mL
AUC(0-t) of 113 (in vivo; male, Sprague-Dawley, po): 15.7 ng·h/mL
Cmax (in vivo; male, Sprague-Dawley, po): 17.7 ng/mL
F of 113 (in vivo; male, Sprague-Dawley, po): 10.1%
Tmax (in vivo; male, Sprague-Dawley, po): 15 min
AUC(0-last) in brain (in vivo; iv): 47.5 ng·h/g
AUC(0-last) in liver (in vivo; iv): 28.1 ng·h/g
Compound: CN1CCN(C(=O)C2C(C(=O)OCC(Cl)(Cl)Cl)[C@H]3CC[C@@H]2O3)CC1 (stereo partly shown) [Compound 113]
clinical symptoms (in vivo): No abnormal clinical symptom was observed

metabolism in whole blood metabolite study ([2]; monkey, human): metabolized to endothall and LB-100
Compound: CCOC(=O)OCOC(=O)[C@H]1[C@@H](C(=O)N2CCN(C)CC2)[C@@H]2CC[C@H]1O2 [LB-100 Carbonate]
metabolite formation in whole blood half-life study ([2]; blood): formation of endothall and LB-100 were observed

Compound: CN1CCN(C(=O)C2C3CCC(O3)C2C(=O)OCOC(=O)C(C)(C)C)CC1 (stereo not shown) [LB-100 POM Ester]
metabolite formation in whole blood half-life study ([2]; cross species): formation of endothall and LB-100 were observed
metabolism in whole blood metabolite study ([2]; monkey and human): metabolized to endothall and LB-100
metabolites observed in liver S9 stability study [3]: metabolites LB-100 and endothall were observed

Compound: C[C@@](O)(/C=C/[C@H]1CC=CC(=O)O1)[C@@H](C[C@@H](O)\C=C/C=C\C=C\CO)OP(=O)(O)O [fostriecin]
dose limiting toxicity [4]: Dose limiting toxicity was not achieved
major toxicities [4]: reversible non-cumulative increases in serum creatinine and hepatic enzymes
